The source of these data is patent US6452005B1, “JAK-3 inhibitors for treating allergic disorders” (Parker Hughes Institute, priority 1999, dated 2002).

pIC50: −log10 of the molar value.

Assay [1] concerns the target T1, human JAK3 (Homo sapiens, UniProt P52333).
T1 construct: KL-2 EBV-transformed human lymphoblastoid B cells (native JAK3 kinase assays); endogenous in cells; host or cells: KL-2 EBV-transformed human lymphoblastoid B cell line
T1 sequence (P52333 1-1124): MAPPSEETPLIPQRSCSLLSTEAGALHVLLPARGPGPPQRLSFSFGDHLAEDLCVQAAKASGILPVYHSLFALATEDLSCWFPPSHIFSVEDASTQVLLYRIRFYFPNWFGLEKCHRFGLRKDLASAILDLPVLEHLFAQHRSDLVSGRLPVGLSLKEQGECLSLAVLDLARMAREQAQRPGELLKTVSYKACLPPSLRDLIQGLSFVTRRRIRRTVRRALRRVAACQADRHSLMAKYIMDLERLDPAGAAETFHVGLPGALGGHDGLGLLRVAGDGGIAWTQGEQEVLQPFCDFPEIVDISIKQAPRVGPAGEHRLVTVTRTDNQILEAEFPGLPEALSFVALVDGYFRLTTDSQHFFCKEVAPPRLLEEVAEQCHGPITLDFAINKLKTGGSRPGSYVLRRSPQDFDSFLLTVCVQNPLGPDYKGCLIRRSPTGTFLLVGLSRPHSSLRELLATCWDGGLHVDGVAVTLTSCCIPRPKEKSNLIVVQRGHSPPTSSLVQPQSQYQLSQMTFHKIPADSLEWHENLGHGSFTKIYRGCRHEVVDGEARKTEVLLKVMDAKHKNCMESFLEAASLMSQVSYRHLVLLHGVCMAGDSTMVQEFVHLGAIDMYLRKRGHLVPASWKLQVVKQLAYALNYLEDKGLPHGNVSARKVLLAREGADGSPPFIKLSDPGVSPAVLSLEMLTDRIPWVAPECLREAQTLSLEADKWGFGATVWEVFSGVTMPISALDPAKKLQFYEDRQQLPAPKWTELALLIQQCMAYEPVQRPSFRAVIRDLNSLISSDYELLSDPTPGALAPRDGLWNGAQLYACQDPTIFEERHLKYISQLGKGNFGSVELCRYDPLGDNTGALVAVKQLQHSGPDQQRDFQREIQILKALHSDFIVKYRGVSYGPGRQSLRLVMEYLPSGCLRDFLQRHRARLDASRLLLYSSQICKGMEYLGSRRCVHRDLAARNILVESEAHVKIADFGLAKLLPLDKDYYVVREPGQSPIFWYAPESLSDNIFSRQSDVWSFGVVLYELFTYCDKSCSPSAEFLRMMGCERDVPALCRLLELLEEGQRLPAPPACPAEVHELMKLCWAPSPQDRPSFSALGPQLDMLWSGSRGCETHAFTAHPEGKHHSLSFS
The assay can be described thus: Immune complex kinase assay, JAK3 immunoprecipitated from KL2 EBV-transformed lymphoblastoid B cell line. Conditions: JAK3 immunoprecipitated from KL2 cells. The class given is biochemical. How it is done:
KL-2 EBV-transformed human lymphoblastoid B cells (native JAK3 kinase assays) or insect ovary cells (recombinant JAK3 kinase assays) were lysed with NP-40 lysis buffer (50 mM Tris, pH 8, 150 mM NaCl, 5 mM EDTA, 1% NP-40, 100 μM sodium orthovanadate, 100 μM sodium molybdate, 8 μg/ml aprotinin, 5 μg/ml leupeptin, and 500 μM PMSF) and centrifuged 10 minutes at 13000×g to remove insoluble material. Samples were immunoprecipitated with antisera prepared against JAK3. The antisera were diluted and immune complexes collected by incubation with 15 μl protein A Sepharose. After 4 washes with NP-40 lysis buffer, the protein A Sepharose beads were washed once in kinase buffer (20 mM MOPS, pH 7.0, 10 mM MgCl2) and resuspended in the same buffer. Reactions were initiated by the addition of 25 μCi γ[^32P] ATP (5000 Ci/mMole) and unlabeled ATP to a final concentration of 5 μM. Reactions were terminated by boiling for 4 min in SDS sample buffer. Samples were run on 9.5% SDS polyacrylamide gels and labeled proteins will be detected by autoradiography. […] For each drug concentration, a kinase activity index (KA) was determined by comparing the kinase activity in phosphorimager units (PIU) to that of the baseline sample. […]

Assay [2] concerns BALB/c mice. As to the kind of experiment: IgE/antigen-induced active systemic anaphylaxis model. The class given is in vivo. Conditions: BSA-sensitized mice, two doses of 45 mg/kg before challenge; 8 of 15. How it is done:
FIG. 14E is a graph showing results of a study of the effect of JAK3 inhibitor WHI-P131 on fatal anaphylaxis in mice. BALB/c mice were sensitized with 100 mg/kg bovine serum albumin in 200 μl of the adjuvant aluminum hydroxide gel (Reheis Inc., Berkeley, N.J.), which favors the production of IgE in response to the presented antigen. Ten days later, mice were treated with two doses of WHI-P131 (45 mg/kg) or vehicle 30 minutes apart and then challenged with an i.v. injection of the 10 mg/kg BSA. Cumulative proportions of mice surviving anaphylaxis-free are shown according to the time after the antigen challenge.
To induce passive systemic anaphylaxis, BALB/c mice were sensitized with […] DNP-IgE intravenously. At 24 hours DNP-BSA (2 mg) was administered intravenously with 0.5% Evans blue (200 μl). For assessment of vascular leak, animals were sacrificed 30 minutes after the antigen challenge and their foot pads were examined for blue coloration. Histamine levels in plasma were measured 5 minutes after the antigen challenge. […] For histopathologic evaluation of tissue mast cell degranulation, ears of mice were removed 1 hour after the DNP-BSA injection and fixed in 10 percent buffered formalin. […]

In general, pIC50 refers to the negative decadic logarithm of the IC50, by convention in mol/L. Lower therefore signals a large IC50. In the case of `COc1cc2ncnc(Nc3ccc(O)cc3)c2cc1OC` [WHI-P131, 4-(4′-Hydroxylphenyl)-amino-6,7-dimethoxyquinazoline], the pIC50 in assay [1] was 5.04. Further, the “mice surviving without any signs of anaphylaxis” value in assay [2] is 53%.
